Data reported in the supplement of paper PMC10883282.

Tests used:
Test in all cases: relative viability vs DMSO control (72 h) (fraction); higher = more viable cells
[1] = system: SYO-1
Outline: (§1)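 Sarcoma cell lines were plated in 384 wells to reach 80–90% confluence, treated after 24 h with 2.5 µl of serially diluted compound and held 72 h at 37 °C, 5% CO2. Relative viability was taken as percent growth from ATPLite readings, averaged over up to triplicate wells. The values were rescaled so that 1 marks full and 0 marks none.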

[2] = system: RD
Outline: as §1

[3] = system: SW684
Outline: as §1

[4] = system: SW872
Outline: as §1

[5] = system: HS729
Outline: as §1

[6] = system: SW1353
Outline: as §1

[7] = system: KHOS-NP
Outline: as §1

[8] = system: G401
Outline: as §1

[9] = system: HT1080
Outline: as §1

[10] = system: RD-ES
Outline: as §1

[11] = system: SK-LMS-1
Outline: as §1

[12] = system: KHOS-240S
Outline: as §1

CCCS(=O)(=O)N[C@H]1C[C@@H](N(C)c2ncnc3[nH]ccc23)C1 [Abrocitinib]
Details | relative viability
[1], 0.00017 µM | 0.984
[1], 0.00051 µM | 0.951
[1], 0.00152 µM | 0.956
[1], 0.00457 µM | 0.972
[1], 0.01372 µM | 0.952
[1], 0.04115 µM | 0.957
[1], 0.1235 µM | 0.974
[1], 0.3704 µM | 0.959
[1], 1.111 µM | 0.993
[1], 3.333 µM | 0.994
[1], 10 µM | 1.01
[2], 0.00017 µM | 1.06
[2], 0.00051 µM | 1.12
[2], 0.00152 µM | 1.11
[2], 0.00457 µM | 1.09
[2], 0.01372 µM | 1.09
[2], 0.04115 µM | 1.11
[2], 0.1235 µM | 1.09
[2], 0.3704 µM | 1.08
[2], 1.111 µM | 1.15
[2], 3.333 µM | 1.1
[2], 10 µM | 1.09
[3], 0.00017 µM | 1.11
[3], 0.00051 µM | 1.12
[3], 0.00152 µM | 1.12
[3], 0.00457 µM | 1.15
[3], 0.01372 µM | 1.12
[3], 0.04115 µM | 1.13
[3], 0.1235 µM | 1.14
[3], 0.3704 µM | 1.16
[3], 1.111 µM | 1.11
[3], 3.333 µM | 1.09
[3], 10 µM | 1.08
[4], 0.00017 µM | 0.993
[4], 0.00051 µM | 0.995
[4], 0.00152 µM | 0.991
[4], 0.00457 µM | 1
[4], 0.01372 µM | 1.01
[4], 0.04115 µM | 1.03
[4], 0.1235 µM | 1.02
[4], 0.3704 µM | 1.02
[4], 1.111 µM | 1.03
[4], 3.333 µM | 1.01
[4], 10 µM | 1
[5], 0.00017 µM | 0.926
[5], 0.00051 µM | 0.935
[5], 0.00152 µM | 0.937
[5], 0.00457 µM | 0.951
[5], 0.01372 µM | 0.94
[5], 0.04115 µM | 0.95
[5], 0.1235 µM | 0.909
[5], 0.3704 µM | 0.91
[5], 1.111 µM | 0.941
[5], 3.333 µM | 0.8836
[5], 10 µM | 0.892
[6], 0.00017 µM | 0.96
[6], 0.00051 µM | 0.966
[6], 0.00152 µM | 0.929
[6], 0.00457 µM | 0.96
[6], 0.01372 µM | 1
[6], 0.04115 µM | 0.9632
[6], 0.1235 µM | 0.977
[6], 0.3704 µM | 0.999
[6], 1.111 µM | 0.958
[6], 3.333 µM | 0.991
[6], 10 µM | 0.996
[7], 0.00017 µM | 1.05
[7], 0.00051 µM | 1.04
[7], 0.00152 µM | 1.04
[7], 0.00457 µM | 1.05
[7], 0.01372 µM | 1.05
[7], 0.04115 µM | 1.04
[7], 0.1235 µM | 1.06
[7], 0.3704 µM | 1.04
[7], 1.111 µM | 1.05
[7], 3.333 µM | 1.04
[7], 10 µM | 1.039
[8], 0.00017 µM | 1
[8], 0.00051 µM | 0.981
[8], 0.00152 µM | 0.994
[8], 0.00457 µM | 1.04
[8], 0.01372 µM | 1.01
[8], 0.04115 µM | 0.981
[8], 0.1235 µM | 0.984
[8], 0.3704 µM | 1.01
[8], 1.111 µM | 1.01
[8], 3.333 µM | 0.956
[8], 10 µM | 0.915
[9], 0.00017 µM | 1.026
[9], 0.00051 µM | 1.02
[9], 0.00152 µM | 1.046
[9], 0.00457 µM | 1.022
[9], 0.01372 µM | 1.05
[9], 0.04115 µM | 1.05
[9], 0.1235 µM | 1.026
[9], 0.3704 µM | 1.04
[9], 1.111 µM | 1.021
[9], 3.333 µM | 1.03
[9], 10 µM | 1.05
[10], 0.00017 µM | 0.988
[10], 0.00051 µM | 0.998
[10], 0.00152 µM | 0.985
[10], 0.00457 µM | 0.993
[10], 0.01372 µM | 1.02
[10], 0.04115 µM | 1.03
[10], 0.1235 µM | 1.03
[10], 0.3704 µM | 1.015
[10], 1.111 µM | 1.03
[10], 3.333 µM | 1.03
[10], 10 µM | 1.03
[11], 0.00017 µM | 1
[11], 0.00051 µM | 1.03
[11], 0.00152 µM | 1.01
[11], 0.00457 µM | 1.02
[11], 0.01372 µM | 1.04
[11], 0.04115 µM | 1.04
[11], 0.1235 µM | 0.992
[11], 0.3704 µM | 1.01
[11], 1.111 µM | 1.01
[11], 3.333 µM | 1.02
[11], 10 µM | 1.02
[12], 0.00017 µM | 1.03
[12], 0.00051 µM | 1.03
[12], 0.00152 µM | 1.03
[12], 0.00457 µM | 1.04
[12], 0.01372 µM | 1.04
[12], 0.04115 µM | 1.04
[12], 0.1235 µM | 0.9912
[12], 0.3704 µM | 1.02
[12], 1.111 µM | 1.03
[12], 3.333 µM | 1.05
[12], 10 µM | 0.988

COc1cc2c(Oc3ccc4[nH]c(C)cc4c3F)ccnc2cc1OCC1(N)CC1 [Anlotinib]
Details | relative viability
[1], 0.00017 µM | 0.921
[1], 0.00051 µM | 0.923
[1], 0.00152 µM | 0.92
[1], 0.00457 µM | 0.884
[1], 0.01372 µM | 0.856
[1], 0.04115 µM | 0.817
[1], 0.1235 µM | 0.679
[1], 0.3704 µM | 0.529
[1], 1.111 µM | 0.46
[1], 3.333 µM | 0.328
[1], 10 µM | 0.115
[2], 0.00017 µM | 1.06
[2], 0.00051 µM | 1.06
[2], 0.00152 µM | 1.08
[2], 0.00457 µM | 1.07
[2], 0.01372 µM | 1.06
[2], 0.04115 µM | 1.09
[2], 0.1235 µM | 1.07
[2], 0.3704 µM | 1.04
[2], 1.111 µM | 0.946
[2], 3.333 µM | 0.594
[2], 10 µM | 0.217
[3], 0.00017 µM | 1.15
[3], 0.00051 µM | 1.09
[3], 0.00152 µM | 1.11
[3], 0.00457 µM | 1.11
[3], 0.01372 µM | 1.12
[3], 0.04115 µM | 1.14
[3], 0.1235 µM | 1.13
[3], 0.3704 µM | 1.11
[3], 1.111 µM | 1.07
[3], 3.333 µM | 0.847
[3], 10 µM | 0.502
[4], 0.00017 µM | 0.962
[4], 0.00051 µM | 1.01
[4], 0.00152 µM | 0.985
[4], 0.00457 µM | 1
[4], 0.01372 µM | 1.02
[4], 0.04115 µM | 0.996
[4], 0.1235 µM | 1.01
[4], 0.3704 µM | 1
[4], 1.111 µM | 0.957
[4], 3.333 µM | 0.676
[4], 10 µM | 0.437
[5], 0.00017 µM | 0.944
[5], 0.00051 µM | 0.908
[5], 0.00152 µM | 0.951
[5], 0.00457 µM | 0.917
[5], 0.01372 µM | 0.935
[5], 0.04115 µM | 0.909
[5], 0.1235 µM | 0.911
[5], 0.3704 µM | 0.795
[5], 1.111 µM | 0.769
[5], 3.333 µM | 0.678
[5], 10 µM | 0.383
[6], 0.00017 µM | 0.9631
[6], 0.00051 µM | 0.99
[6], 0.00152 µM | 0.985
[6], 0.00457 µM | 0.99
[6], 0.01372 µM | 0.95
[6], 0.04115 µM | 0.976
[6], 0.1235 µM | 0.9632
[6], 0.3704 µM | 0.937
[6], 1.111 µM | 0.88
[6], 3.333 µM | 0.551
[6], 10 µM | 0.254
[7], 0.00017 µM | 1.06
[7], 0.00051 µM | 1.06
[7], 0.00152 µM | 1.06
[7], 0.00457 µM | 1.06
[7], 0.01372 µM | 1.07
[7], 0.04115 µM | 1.05
[7], 0.1235 µM | 1.04
[7], 0.3704 µM | 1.05
[7], 1.111 µM | 1.04
[7], 3.333 µM | 0.735
[7], 10 µM | 0.264
[8], 0.00017 µM | 0.964
[8], 0.00051 µM | 0.986
[8], 0.00152 µM | 1.01
[8], 0.00457 µM | 0.988
[8], 0.01372 µM | 0.976
[8], 0.04115 µM | 0.982
[8], 0.1235 µM | 0.955
[8], 0.3704 µM | 0.89
[8], 1.111 µM | 0.773
[8], 3.333 µM | 0.445
[8], 10 µM | 0.163
[9], 0.00017 µM | 1.023
[9], 0.00051 µM | 1.03
[9], 0.00152 µM | 1.04
[9], 0.00457 µM | 1.03
[9], 0.01372 µM | 1.05
[9], 0.04115 µM | 1.05
[9], 0.1235 µM | 1.07
[9], 0.3704 µM | 1.08
[9], 1.111 µM | 1.1
[9], 3.333 µM | 1.02
[9], 10 µM | 0.0879
[10], 0.00017 µM | 0.9225
[10], 0.00051 µM | 0.948
[10], 0.00152 µM | 0.969
[10], 0.00457 µM | 0.965
[10], 0.01372 µM | 0.98
[10], 0.04115 µM | 0.992
[10], 0.1235 µM | 0.977
[10], 0.3704 µM | 0.9545
[10], 1.111 µM | 0.925
[10], 3.333 µM | 0.594
[10], 10 µM | 0.0858
[11], 0.00017 µM | 1.08
[11], 0.00051 µM | 1.06
[11], 0.00152 µM | 1.08
[11], 0.00457 µM | 1.05
[11], 0.01372 µM | 1.06
[11], 0.04115 µM | 1.05
[11], 0.1235 µM | 1.04
[11], 0.3704 µM | 1.03
[11], 1.111 µM | 0.85
[11], 3.333 µM | 0.416
[11], 10 µM | 0.0427
[12], 0.00017 µM | 1.06
[12], 0.00051 µM | 1.049
[12], 0.00152 µM | 1.04
[12], 0.00457 µM | 1.06
[12], 0.01372 µM | 1.05
[12], 0.04115 µM | 1.04
[12], 0.1235 µM | 1.03
[12], 0.3704 µM | 0.993
[12], 1.111 µM | 0.892
[12], 3.333 µM | 0.464
[12], 10 µM | 0.122
